According to paper PMC10480161, “Identification of potent and selective N-myristoyltransferase inhibitors of Plasmodium vivax liver stage hypnozoites and schizonts” (Nature Communications, 2023):
Values joined by “and” are separate entries in the source; they are usually repeats but may differ in a detail not shown here. Equal values may be shown once.

Experiments:
P. vivax hypnozoites = assay: P. vivax liver stage assay, hypnozoites; type: cell-based, Plasmodium vivax; conditions: for Hypnozoites per well: Isolate 2, replicate wells (Figure 6d); for Number of liverstage hypnozoites per well: 20 µM, 8 dpi; for IC50: Plasmodium vivax, Hepatocyte, 120 h, primary human hepatocytes, treatment day 5 to 8 post-infection, isolate 2
Method: Finally, we evaluated the NMT-binding compounds against non-developing P. vivax hypnozoites. […] (Fig. 6A). […] We, therefore, evaluated the impact of all tested compounds on P. vivax hypnozoites using these two isolates.
Plasmodium vivax liver stage assays were performed as described previously. Cryopreserved primary human hepatocytes (Cat No. F00995-P) and hepatocyte culture medium (HCM) (InVitroGroTM CP Medium) were obtained from Bioreclamation IVT, Inc., (Baltimore, MD, USA). Briefly, we seeded 384-well plates with primary hepatocytes from a single donor lot at a density of 25,000 cells per well. We then infected the hepatocytes with 14,000 freshly hand-dissected sporozoites per well. Cells were exposed to the compounds at indicated concentrations from day 5 post-infection. We used Pi4K inhibitor MMV390048, at 20 µM, as a positive control to eliminate P. vivax liver schizonts. We then proceeded to feed cultures every day, replacing the compounds until day 8 post-infection. Cells were fixed with 4% PFA, permeabilized with 1% Triton X-100, blocked with 2% BSA, and stained with DAPI and PvUIS4 antibodies to detect schizonts and hypnozoites forms by confocal microscopy. For antibody dilutions, PvUIS4 (kind gift from Dr. Noah Sather, Seattle Children’s Research Institute) was diluted 1:250 and the secondary antibody was anti-mouse AlexaFluor-594 (Cat # A-11005; RRID: AB_2534073) diluted 1:1000. DAPI was diluted 1:2000. The images were processed, analyzed and outlier cells were removed using IMARIS (Bitplane Inc.) image analysis software.

HepG2 cells = assay: HepG2 cytotoxicity assay (Live/Dead staining); conditions: replicates
Procedure, shortened: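 Live/dead fluorescence microscopy (calcein-AM and ethidium homodimer, 1 µM each) read at 72 h post-treatment. Compounds dosed at 1 to 20 µM on HepG2 cells, with washing and fresh compound every 24 h.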

PvNMT = PvNMT (Plasmodium vivax, UniProt A5K1A2); assay: NMT activity assay (CPM detection of free CoA), PvNMT; conditions: for IC50: PvNMT IC50, mean of two or more determinations; for SI: enzyme selectivity, HsNMT IC50/PvNMT IC50
HsNMT1 = target: T1, HsNMT1 (Homo sapiens, UniProt P30419); assay: NMT activity assay (CPM detection of free CoA), HsNMT
T1 sequence (P30419 1-496): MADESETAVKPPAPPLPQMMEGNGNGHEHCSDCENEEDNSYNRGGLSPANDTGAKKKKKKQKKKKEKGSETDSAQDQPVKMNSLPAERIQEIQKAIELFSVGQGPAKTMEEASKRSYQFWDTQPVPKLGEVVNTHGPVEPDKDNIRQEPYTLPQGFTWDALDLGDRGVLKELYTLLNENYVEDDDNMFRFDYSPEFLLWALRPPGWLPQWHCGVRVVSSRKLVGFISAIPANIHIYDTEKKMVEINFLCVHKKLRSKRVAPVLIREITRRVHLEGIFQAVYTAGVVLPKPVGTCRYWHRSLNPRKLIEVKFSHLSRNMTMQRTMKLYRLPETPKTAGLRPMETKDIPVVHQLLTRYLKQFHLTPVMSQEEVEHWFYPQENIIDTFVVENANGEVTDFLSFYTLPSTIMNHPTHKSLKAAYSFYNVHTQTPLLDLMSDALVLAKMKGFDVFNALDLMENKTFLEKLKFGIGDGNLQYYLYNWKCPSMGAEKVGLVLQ

P. vivax schizonts = assay: P. vivax liver stage assay, schizonts; type: cell-based, Plasmodium vivax; conditions: for Number of liverstage Schizonts per well: 20 µM, 8 dpi; for IC50: Plasmodium vivax, Hepatocyte, 120 h, primary human hepatocytes, treatment day 5 to 8 post-infection, isolates 2 and 3
Procedure, shortened: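 Compound exposure ran days 5–8 post-infection with daily refeeding, dose-response up to 20 µM, MMV390048 at 20 µM as positive control. Host cells were single-lot primary human hepatocytes infected with freshly dissected P. vivax sporozoites; fixed cultures stained with anti-PvUIS4 and DAPI, schizonts quantified by confocal microscopy.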

[1] = isolate 1, technical replicates (Fig. 6C)
[2] = isolate 2, technical replicates (Fig. 6C)
[3] = isolate 3, technical replicates (Fig. 6C)
[4] = isolate 1, technical replicates (Fig. 5b)
[5] = isolate 2, technical replicates (Fig. 5b)
[6] = isolate 3, technical replicates (Fig. 5b)

Chain of PvNMT (A5K1A2 entry or part of it): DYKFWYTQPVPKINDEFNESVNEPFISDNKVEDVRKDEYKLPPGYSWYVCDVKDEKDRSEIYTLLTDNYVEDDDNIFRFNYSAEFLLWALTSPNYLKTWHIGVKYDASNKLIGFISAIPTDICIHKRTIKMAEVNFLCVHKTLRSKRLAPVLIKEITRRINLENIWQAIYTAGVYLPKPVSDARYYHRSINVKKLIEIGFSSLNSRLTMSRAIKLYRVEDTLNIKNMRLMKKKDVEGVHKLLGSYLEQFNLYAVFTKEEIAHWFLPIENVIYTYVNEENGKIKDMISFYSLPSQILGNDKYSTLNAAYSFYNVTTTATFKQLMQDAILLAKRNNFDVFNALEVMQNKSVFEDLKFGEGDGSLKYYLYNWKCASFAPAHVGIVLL

For `Cc1nn(C)c(C)c1CCOc1cc(F)ccc1-c1cccc(N2CCNCC2)c1` [Compound 12f], the Hypnozoites per well (P. vivax hypnozoites; 1.25 uM) was 4 (2×) and 2, the Hypnozoites per well (P. vivax hypnozoites; 2.5 uM) was 3 and the Hypnozoites per well (P. vivax hypnozoites; 5 uM) was 2 and 3 (2×). For the same compound, the Hypnozoites per well (P. vivax hypnozoites; 10 uM) was 1, the “Number of liverstage hypnozoites per well” value (P. vivax hypnozoites; [1]) was 1 per well (2×) and 0 per well and the “Number of liverstage hypnozoites per well” value (P. vivax hypnozoites; [2]) was 1 per well (2×) and 0 per well. For the same compound, the “Number of liverstage hypnozoites per well” value (P. vivax hypnozoites; [3]) was 0 per well, the Hypnozoites per well (P. vivax hypnozoites; 20 uM) was 1 (2×) and 0 and the IC50 (P. vivax hypnozoites) was 1500 nM. For the same compound, the “hypnozoites (fold change to DMSO) mean diff” value (P. vivax hypnozoites; isolate 1, 20 µM) was 0.939, the “hypnozoites (fold change to DMSO) mean diff” value (P. vivax hypnozoites; isolate 2, 20 µM) was 0.931 and the “Percentage of live HepG2 cells compared with diluent controls” value (“Percentage of live HepG2 cells” below) (HepG2 cells; 1 μM) was 101.889% and 101.421%. The “Percentage of live HepG2 cells” value (HepG2 cells; 2.5 μM) was 101.941% and 101.11%, the “Percentage of live HepG2 cells” value (HepG2 cells; 5 μM) was 95.3928% and 101.733% and the “Percentage of live HepG2 cells” value (HepG2 cells; 10 μM) was 95.3148% and 109.373%. The “Percentage of live HepG2 cells” value (HepG2 cells; 20 μM) was 87.3113% and 87.6751%, the IC50 (PvNMT) was 15.9 nM and the SI (PvNMT) was 43.9. For the same compound, the IC50 (HsNMT1) was 0.699 µM, the “Number of liverstage Schizonts per well” value (P. vivax schizonts; [4]) was 0 per well and the “Number of liverstage Schizonts per well” value (P. vivax schizonts; [5]) was 1 per well and 0 per well (2×). The “Number of liverstage Schizonts per well” value (P. vivax schizonts; [6]) was 3 per well and 2 per well, the Schizonts per well (P. vivax schizonts; Isolate 2, 1.25 uM) was 12 per well and 13 per well and 17 per well and the Schizonts per well (P. vivax schizonts; Isolate 2, 2.5 uM) was 10 per well and 9 per well and 15 per well. The Schizonts per well (P. vivax schizonts; Isolate 2, 5 uM) was 8 per well and 9 per well and 11 per well, the Schizonts per well (P. vivax schizonts; Isolate 3, 1.25 uM) was 11 per well and the Schizonts per well (P. vivax schizonts; Isolate 3, 2.5 uM) was 10 per well and 12 per well. The Schizonts per well (P. vivax schizonts; Isolate 3, 5 uM) was 7 per well and 5 per well, the Schizonts per well (P. vivax schizonts; Isolate 3, 10 uM) was 3 per well and 5 per well and the Schizonts per well (P. vivax schizonts; Isolate 3, 20 uM (Fig. 5c-d)) was 3 per well and 2 per well. For the same compound, the IC50 (P. vivax schizonts) was 3.3 to 4.3 µM, the “schizonts (fold change to DMSO) mean diff” value (P. vivax schizonts; isolate 1, 20 µM) was 1.000 and the “schizonts (fold change to DMSO) mean diff” value (P. vivax schizonts; isolate 2, 20 µM) was 0.9811. The “schizonts (fold change to DMSO) mean diff” value (P. vivax schizonts; isolate 3, 20 µM) was 0.8295.
With `c1cncc(CCOc2cccnc2-c2cccc(N3CCNCC3)c2)c1` [Compound 12g] the Hypnozoites per well (P. vivax hypnozoites; 1.25 uM) was 5 and 0 and 3, the Hypnozoites per well (P. vivax hypnozoites; 2.5 uM) was 3 and 4 and 0 and the Hypnozoites per well (P. vivax hypnozoites; 5 uM) was 1 and 2 and 0. For the same compound, the Hypnozoites per well (P. vivax hypnozoites; 10 uM) was 1 and 0 (2×), the “Number of liverstage hypnozoites per well” value (P. vivax hypnozoites; [1]) was 1 per well and 0 per well (2×) and the “Number of liverstage hypnozoites per well” value (P. vivax hypnozoites; [2]) was 1 per well and 0 per well (2×). The “Number of liverstage hypnozoites per well” value (P. vivax hypnozoites; [3]) was 0 per well, the Hypnozoites per well (P. vivax hypnozoites; 20 uM) was 1 and 0 (2×) and the IC50 (P. vivax hypnozoites) was 1200 nM. For the same compound, the “hypnozoites (fold change to DMSO) mean diff” value (P. vivax hypnozoites; isolate 1, 20 µM) was 0.785, the “hypnozoites (fold change to DMSO) mean diff” value (P. vivax hypnozoites; isolate 2, 20 µM) was 0.966 and the “Percentage of live HepG2 cells” value (HepG2 cells; 1 μM) was 99.9402% and 99.6024%. The “Percentage of live HepG2 cells” value (HepG2 cells; 2.5 μM) was 99.7323% and 98.2512%, the “Percentage of live HepG2 cells” value (HepG2 cells; 5 μM) was 98.4851% and 90.6374% and the “Percentage of live HepG2 cells” value (HepG2 cells; 10 μM) was 86.6876% and 91.5989%. For the same compound, the “Percentage of live HepG2 cells” value (HepG2 cells; 20 μM) was 78.4502% and 78.1644%, the IC50 (PvNMT) was 104 nM and the SI (PvNMT) was 152.8. For the same compound, the IC50 (HsNMT1) was 15.9 µM, the “Number of liverstage Schizonts per well” value (P. vivax schizonts; [4]) was 0 per well and the “Number of liverstage Schizonts per well” value (P. vivax schizonts; [5]) was 3 per well and 4 per well and 6 per well. For the same compound, the “Number of liverstage Schizonts per well” value (P. vivax schizonts; [6]) was 3 per well, the Schizonts per well (P. vivax schizonts; Isolate 2, 1.25 uM) was 10 per well and 11 per well and 19 per well and the Schizonts per well (P. vivax schizonts; Isolate 2, 2.5 uM) was 11 per well and 12 per well and 16 per well. The Schizonts per well (P. vivax schizonts; Isolate 2, 5 uM) was 6 per well and 8 per well and 11 per well, the Schizonts per well (P. vivax schizonts; Isolate 2, 20 uM (Fig. 5c-d)) was 3 per well and 4 per well and 6 per well and the Schizonts per well (P. vivax schizonts; Isolate 3, 1.25 uM) was 13 per well and 11 per well. For the same compound, the Schizonts per well (P. vivax schizonts; Isolate 3, 2.5 uM) was 7 per well and 6 per well, the Schizonts per well (P. vivax schizonts; Isolate 3, 5 uM) was 8 per well and 4 per well and the Schizonts per well (P. vivax schizonts; Isolate 3, 10 uM) was 5 per well. For the same compound, the Schizonts per well (P. vivax schizonts; Isolate 3, 20 uM (Fig. 5c-d)) was 3 per well, the IC50 (P. vivax schizonts) was 2.2 to 3.1 µM and the “schizonts (fold change to DMSO) mean diff” value (P. vivax schizonts; isolate 1, 20 µM) was 1.000. The “schizonts (fold change to DMSO) mean diff” value (P. vivax schizonts; isolate 2, 20 µM) was 0.7547 and the “schizonts (fold change to DMSO) mean diff” value (P. vivax schizonts; isolate 3, 20 µM) was 0.7955.
For `c1cncc(CCOc2ccccc2-c2ccnc(N3CCNCC3)c2)c1` [Compound 12j], the Hypnozoites per well (P. vivax hypnozoites; 1.25 uM) was 9 and 6 and 12, the Hypnozoites per well (P. vivax hypnozoites; 2.5 uM) was 13 and 12 and 8 and the Hypnozoites per well (P. vivax hypnozoites; 5 uM) was 19 and 3 and 13. For the same compound, the Hypnozoites per well (P. vivax hypnozoites; 10 uM) was 13 and 10, the “Number of liverstage hypnozoites per well” value (P. vivax hypnozoites; [1]) was 0 per well (2×) and 3 per well and the “Number of liverstage hypnozoites per well” value (P. vivax hypnozoites; [2]) was 0 per well (2×) and 3 per well. For the same compound, the “Number of liverstage hypnozoites per well” value (P. vivax hypnozoites; [3]) was 0 per well, the Hypnozoites per well (P. vivax hypnozoites; 20 uM) was 0 (2×) and 3 and the IC50 (P. vivax hypnozoites) was 12000 nM. The “hypnozoites (fold change to DMSO) mean diff” value (P. vivax hypnozoites; isolate 1, 20 µM) was 0.985, the “hypnozoites (fold change to DMSO) mean diff” value (P. vivax hypnozoites; isolate 2, 20 µM) was 0.897 and the “Percentage of live HepG2 cells” value (HepG2 cells; 1 μM) was 85.5703% and 82.8678%. For the same compound, the “Percentage of live HepG2 cells” value (HepG2 cells; 2.5 μM) was 74.0847% and 82.3481%, the “Percentage of live HepG2 cells” value (HepG2 cells; 5 μM) was 81.2567% and 75.202% and the “Percentage of live HepG2 cells” value (HepG2 cells; 10 μM) was 74.4485% and 73.0193%. The “Percentage of live HepG2 cells” value (HepG2 cells; 20 μM) was 72.4216% and 71.8759%, the IC50 (PvNMT) was 124 nM and the SI (PvNMT) was 220.6. For the same compound, the IC50 (HsNMT1) was 27.4 µM, the “Number of liverstage Schizonts per well” value (P. vivax schizonts; [4]) was 0 per well (2×) and 1 per well and the “Number of liverstage Schizonts per well” value (P. vivax schizonts; [5]) was 2 per well and 0 per well and 1 per well. For the same compound, the “Number of liverstage Schizonts per well” value (P. vivax schizonts; [6]) was 4 per well and 3 per well, the Schizonts per well (P. vivax schizonts; Isolate 2, 1.25 uM) was 15 per well and 18 per well and 14 per well and the Schizonts per well (P. vivax schizonts; Isolate 2, 2.5 uM) was 13 per well and 11 per well. For the same compound, the Schizonts per well (P. vivax schizonts; Isolate 2, 5 uM) was 11 per well and 12 per well and 13 per well, the Schizonts per well (P. vivax schizonts; Isolate 3, 1.25 uM) was 11 per well and 19 per well and the Schizonts per well (P. vivax schizonts; Isolate 3, 2.5 uM) was 12 per well and 16 per well. The Schizonts per well (P. vivax schizonts; Isolate 3, 5 uM) was 8 per well and 11 per well, the Schizonts per well (P. vivax schizonts; Isolate 3, 10 uM) was 6 per well and 9 per well and the Schizonts per well (P. vivax schizonts; Isolate 3, 20 uM (Fig. 5c-d)) was 4 per well and 3 per well. For the same compound, the IC50 (P. vivax schizonts) was 4.9 to 6 µM, the “schizonts (fold change to DMSO) mean diff” value (P. vivax schizonts; isolate 1, 20 µM) was 0.983 and the “schizonts (fold change to DMSO) mean diff” value (P. vivax schizonts; isolate 2, 20 µM) was 0.9434. The “schizonts (fold change to DMSO) mean diff” value (P. vivax schizonts; isolate 3, 20 µM) was 0.7614.
